Results from PubChem BioAssay (NCI).
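Briefly, cells in 96-well plates were exposed to five compound concentrations for 48 h, and endpoints were estimated by linear interpolation. GI50 = concentration required for 50% inhibition of growth. TGI is the concentration that stops growth completely.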

Assays:
Test in all cases: NCI anticancer screen, dose series, 48 h
ACHN renal = tested on: ACHN renal
M14 melanoma = tested on: M14 melanoma
NCI-H226 lung = tested on: NCI-H226 lung
OVCAR-8 ovarian = tested on: OVCAR-8 ovarian
SNB-75 CNS = tested on: SNB-75 CNS
SK-MEL-2 melanoma = tested on: SK-MEL-2 melanoma
SR leukemia = tested on: SR leukemia
HCC-2998 colon = tested on: HCC-2998 colon
OVCAR-3 ovarian = tested on: OVCAR-3 ovarian
MOLT-4 leukemia = tested on: MOLT-4 leukemia
DLD-1 colon = tested on: DLD-1 colon
NCI-H23 lung = tested on: NCI-H23 lung
A549 NSCLC = tested on: A549 NSCLC
RPMI-8226 leukemia = tested on: RPMI-8226 leukemia
MALME-3M melanoma = tested on: MALME-3M melanoma
SNB-78 CNS = tested on: SNB-78 CNS
CCRF-CEM leukemia = tested on: CCRF-CEM leukemia
TK-10 renal = tested on: TK-10 renal
UACC-62 melanoma = tested on: UACC-62 melanoma
U251 CNS = tested on: U251 CNS
UACC-257 melanoma = tested on: UACC-257 melanoma
SF-539 CNS = tested on: SF-539 CNS
SF-295 CNS = tested on: SF-295 CNS
OVCAR-4 ovarian = tested on: OVCAR-4 ovarian
LOX IMVI melanoma = tested on: LOX IMVI melanoma
COLO 205 colon = tested on: COLO 205 colon
HOP-18 NSCLC = tested on: HOP-18 NSCLC
HCT-15 colon = tested on: HCT-15 colon
HOP-62 NSCLC = tested on: HOP-62 NSCLC
SNB-19 CNS = tested on: SNB-19 CNS
RXF-631 renal = tested on: RXF-631 renal
OVCAR-5 ovarian = tested on: OVCAR-5 ovarian
SK-MEL-28 melanoma = tested on: SK-MEL-28 melanoma
KM20L2 colon = tested on: KM20L2 colon
UO-31 renal = tested on: UO-31 renal
HL-60(TB) leukemia = tested on: HL-60(TB) leukemia
SF-268 CNS = tested on: SF-268 CNS
EKVX NSCLC = tested on: EKVX NSCLC
M19-MEL melanoma = tested on: M19-MEL melanoma
LXFL 529 NSCLC = tested on: LXFL 529 NSCLC
DMS 114 small cell lung = tested on: DMS 114 small cell lung
SK-MEL-5 melanoma = tested on: SK-MEL-5 melanoma
K-562 leukemia = tested on: K-562 leukemia
SK-OV-3 ovarian = tested on: SK-OV-3 ovarian
IGROV1 ovarian = tested on: IGROV1 ovarian
HOP-92 NSCLC = tested on: HOP-92 NSCLC
HCT-116 colon = tested on: HCT-116 colon
DMS 273 small cell lung = tested on: DMS 273 small cell lung
HT29 colon = tested on: HT29 colon
SW-620 colon = tested on: SW-620 colon
SN12C renal = tested on: SN12C renal
786-0 renal = tested on: 786-0 renal
NCI-H522 lung = tested on: NCI-H522 lung
CAKI-1 renal = tested on: CAKI-1 renal
A498 renal = tested on: A498 renal
RXF 393 renal = tested on: RXF 393 renal
KM12 colon = tested on: KM12 colon
NCI-H460 lung = tested on: NCI-H460 lung
XF 498 CNS = tested on: XF 498 CNS

For COCCCNC(=O)C1C(=O)C(=O)N(CCCOC)C1=O (stereo not given), the TGI (ACHN renal) was > 100 µM, the TGI (M14 melanoma) was > 100 µM and the TGI (NCI-H226 lung) was > 100 µM. For the same molecule, the TGI (OVCAR-8 ovarian) was > 100 µM, the TGI (SNB-75 CNS) was > 100 µM and the TGI (SK-MEL-2 melanoma) was > 100 µM. The TGI (SR leukemia) was > 100 µM, the TGI (HCC-2998 colon) was > 100 µM and the TGI (OVCAR-3 ovarian) was > 100 µM. For the same molecule, the TGI (MOLT-4 leukemia) was > 100 µM, the TGI (DLD-1 colon) was > 100 µM and the TGI (NCI-H23 lung) was > 100 µM. For the same molecule, the TGI (A549 NSCLC) was > 100 µM, the TGI (RPMI-8226 leukemia) was > 100 µM and the TGI (MALME-3M melanoma) was > 100 µM. For the same molecule, the TGI (SNB-78 CNS) was > 100 µM, the TGI (CCRF-CEM leukemia) was > 100 µM and the TGI (TK-10 renal) was > 100 µM. The TGI (UACC-62 melanoma) was > 100 µM, the TGI (U251 CNS) was > 100 µM and the TGI (UACC-257 melanoma) was > 100 µM. For the same molecule, the TGI (SF-539 CNS) was > 100 µM, the TGI (SF-295 CNS) was > 100 µM and the TGI (OVCAR-4 ovarian) was > 100 µM. The TGI (LOX IMVI melanoma) was > 100 µM, the TGI (COLO 205 colon) was > 100 µM and the TGI (HOP-18 NSCLC) was > 100 µM. The TGI (HCT-15 colon) was > 100 µM, the TGI (HOP-62 NSCLC) was > 100 µM and the TGI (SNB-19 CNS) was > 100 µM. For the same molecule, the TGI (RXF-631 renal) was > 100 µM, the TGI (OVCAR-5 ovarian) was > 100 µM and the TGI (SK-MEL-28 melanoma) was > 100 µM. The TGI (KM20L2 colon) was > 100 µM, the TGI (UO-31 renal) was > 100 µM and the TGI (HL-60(TB) leukemia) was > 100 µM. The TGI (SF-268 CNS) was > 100 µM, the TGI (EKVX NSCLC) was > 100 µM and the TGI (M19-MEL melanoma) was > 100 µM. For the same molecule, the TGI (LXFL 529 NSCLC) was > 100 µM, the TGI (DMS 114 small cell lung) was > 100 µM and the TGI (SK-MEL-5 melanoma) was > 100 µM. For the same molecule, the TGI (K-562 leukemia) was > 100 µM, the TGI (SK-OV-3 ovarian) was > 100 µM and the TGI (IGROV1 ovarian) was > 100 µM. The TGI (HOP-92 NSCLC) was > 100 µM, the TGI (HCT-116 colon) was > 100 µM and the TGI (DMS 273 small cell lung) was > 100 µM. For the same molecule, the TGI (HT29 colon) was > 100 µM, the TGI (SW-620 colon) was > 100 µM and the TGI (SN12C renal) was > 100 µM. The TGI (786-0 renal) was > 100 µM, the TGI (NCI-H522 lung) was > 100 µM and the TGI (CAKI-1 renal) was > 100 µM. The TGI (A498 renal) was > 100 µM.

CCC[CH2][Sn]1([CH2]CCC)[O]C(=O)CN=Cc2c(ccc3ccccc23)[O]1 showed a GI50 (ACHN renal) of 0.319 µM, a TGI (ACHN renal) of 1.05 µM and a GI50 (M14 melanoma) of 0.367 µM. For the same molecule, the TGI (M14 melanoma) was 1.34 µM, the GI50 (OVCAR-8 ovarian) was > 100 µM and the TGI (OVCAR-8 ovarian) was > 100 µM. It also gave a GI50 (SNB-75 CNS) of 0.295 µM, a TGI (SNB-75 CNS) of 1.03 µM and a GI50 (SK-MEL-2 melanoma) of 0.251 µM. The TGI (SK-MEL-2 melanoma) was 0.687 µM, the GI50 (HCC-2998 colon) was 0.777 µM and the TGI (HCC-2998 colon) was 2.02 µM. The GI50 (OVCAR-3 ovarian) was 0.706 µM, the TGI (OVCAR-3 ovarian) was 1.95 µM and the GI50 (MOLT-4 leukemia) was 0.319 µM. The TGI (MOLT-4 leukemia) was 1.14 µM, the GI50 (RXF 393 renal) was 0.136 µM and the TGI (RXF 393 renal) was 0.318 µM. The GI50 (DLD-1 colon) was 0.811 µM, the TGI (DLD-1 colon) was > 100 µM and the GI50 (KM12 colon) was 0.888 µM. For the same molecule, the TGI (KM12 colon) was 2.28 µM, the GI50 (NCI-H23 lung) was 0.235 µM and the TGI (NCI-H23 lung) was 1.11 µM. For the same molecule, the GI50 (A549 NSCLC) was 1.74 µM, the TGI (A549 NSCLC) was 3.4 µM and the GI50 (RPMI-8226 leukemia) was 0.154 µM. The TGI (RPMI-8226 leukemia) was 0.529 µM, the GI50 (MALME-3M melanoma) was 0.134 µM and the TGI (MALME-3M melanoma) was 0.464 µM. It also gave a GI50 (SNB-78 CNS) of 0.282 µM, a TGI (SNB-78 CNS) of 1.4 µM and a GI50 (TK-10 renal) of 0.293 µM. It also gave a TGI (TK-10 renal) of 0.743 µM, a GI50 (UACC-62 melanoma) of 0.229 µM and a TGI (UACC-62 melanoma) of 0.558 µM. For the same molecule, the GI50 (U251 CNS) was 0.351 µM, the TGI (U251 CNS) was 1.2 µM and the GI50 (UACC-257 melanoma) was 0.0434 µM. For the same molecule, the TGI (UACC-257 melanoma) was 0.285 µM, the GI50 (SF-539 CNS) was 1.51 µM and the TGI (SF-539 CNS) was > 100 µM. The GI50 (SF-295 CNS) was 0.794 µM, the TGI (SF-295 CNS) was 2.08 µM and the GI50 (OVCAR-4 ovarian) was 1 µM. The TGI (OVCAR-4 ovarian) was 2.19 µM, the GI50 (LOX IMVI melanoma) was 0.242 µM and the TGI (LOX IMVI melanoma) was 0.827 µM. For the same molecule, the GI50 (COLO 205 colon) was 0.401 µM, the TGI (COLO 205 colon) was 1.47 µM and the GI50 (HOP-18 NSCLC) was 0.223 µM. The TGI (HOP-18 NSCLC) was 1.52 µM, the GI50 (HCT-15 colon) was 0.491 µM and the TGI (HCT-15 colon) was 1.75 µM. For the same molecule, the GI50 (HOP-62 NSCLC) was 3.91 µM, the TGI (HOP-62 NSCLC) was > 100 µM and the GI50 (SNB-19 CNS) was 0.229 µM. It also gave a TGI (SNB-19 CNS) of 0.526 µM, a GI50 (RXF-631 renal) of 0.0181 µM and a TGI (RXF-631 renal) of 0.0331 µM. The GI50 (OVCAR-5 ovarian) was 1.93 µM, the TGI (OVCAR-5 ovarian) was 3.35 µM and the GI50 (SK-MEL-28 melanoma) was 0.363 µM. The TGI (SK-MEL-28 melanoma) was 1.13 µM, the GI50 (KM20L2 colon) was 1.09 µM and the TGI (KM20L2 colon) was 2.29 µM. The GI50 (UO-31 renal) was 0.635 µM, the TGI (UO-31 renal) was 1.92 µM and the GI50 (NCI-H460 lung) was 1.36 µM. The TGI (NCI-H460 lung) was 2.75 µM, the GI50 (SF-268 CNS) was 0.351 µM and the TGI (SF-268 CNS) was 1.18 µM. It also gave a GI50 (EKVX NSCLC) of 0.552 µM, a TGI (EKVX NSCLC) of 1.86 µM and a GI50 (M19-MEL melanoma) of 0.299 µM. For the same molecule, the TGI (M19-MEL melanoma) was 1.23 µM, the GI50 (LXFL 529 NSCLC) was 0.107 µM and the TGI (LXFL 529 NSCLC) was 0.249 µM. It also gave a GI50 (DMS 114 small cell lung) of 0.139 µM, a TGI (DMS 114 small cell lung) of 0.299 µM and a GI50 (SK-MEL-5 melanoma) of 1.81 µM. For the same molecule, the TGI (SK-MEL-5 melanoma) was > 100 µM, the GI50 (K-562 leukemia) was 0.245 µM and the TGI (K-562 leukemia) was 1.09 µM. The GI50 (SK-OV-3 ovarian) was 1.11 µM, the TGI (SK-OV-3 ovarian) was 2.31 µM and the GI50 (IGROV1 ovarian) was 2.48 µM. The TGI (IGROV1 ovarian) was > 100 µM, the GI50 (HOP-92 NSCLC) was 0.171 µM and the TGI (HOP-92 NSCLC) was 0.606 µM. For the same molecule, the GI50 (HCT-116 colon) was 1.04 µM, the TGI (HCT-116 colon) was 2.32 µM and the GI50 (DMS 273 small cell lung) was 1 µM. It also gave a TGI (DMS 273 small cell lung) of 2.22 µM, a GI50 (HT29 colon) of 1.08 µM and a TGI (HT29 colon) of 2.36 µM. The GI50 (SW-620 colon) was 0.184 µM, the TGI (SW-620 colon) was 0.417 µM and the GI50 (SN12C renal) was 0.374 µM. For the same molecule, the TGI (SN12C renal) was 1.39 µM, the GI50 (786-0 renal) was 0.487 µM and the TGI (786-0 renal) was 1.81 µM. The GI50 (XF 498 CNS) was > 100 µM, the TGI (XF 498 CNS) was > 100 µM and the GI50 (NCI-H522 lung) was 0.0605 µM. For the same molecule, the TGI (NCI-H522 lung) was 0.198 µM, the GI50 (CAKI-1 renal) was 0.0629 µM and the TGI (CAKI-1 renal) was 0.593 µM. For the same molecule, the GI50 (A498 renal) was 1.55 µM and the TGI (A498 renal) was > 100 µM.
